Measured values published in US5399543A, “3-[4-(phenylmethoxy)phenyl]-1-substituted-6-haloalkyl-uracil herbicides” (FMC Corporation, priority 1993, dated 1995).

Experiments:
Green foxtail [1] = experiment: Preemergence herbicidal activity, green foxtail; type: in vivo; settings: Setaria viridis, pre-emergence, 0.3 kg/ha, after 17-21 days, read-out: Preemergence herbicidal activity (% control), Green foxtail
Description: (§1) The 3-[4-(phenylmethoxy)phenyl]-1-substituted-6-haloalkyluracil herbicides of this invention were tested for pre- and postemergence herbicidal activity using a variety of crops and weeds. The test plants included soybean (Glycine max var. Williams), field corn (Zea mays var. Agway 425X), wheat (Triticum aestivum var. Wheaton), morningglory (Ipomea lacunosa or Ipomea hederacea), velvetleaf (Abutilon theophrasti), green foxtail (Setaria viridis), Johnsongrass (Sorghum halepense), blackgrass (Aloepecurus myosuroides), common chickweed (Stellaria media), and common cocklebur (Xanthium pensylvanicum).
(§2) For preemergence testing, two disposable fiber flats (8 cm×15 cm×25 cm) for each rate of application of each candidate herbicide were filled to an approximate depth of 6.5 cm with steam-sterilized sandy loam soil. The soil was leveled and impressed with a template to provide five evenly spaced furrows 13 cm long and 0.5 cm deep in each flat. Seeds of soybean, wheat, corn, green foxtail, and johnsongrass were planted in the furrows of the first flat, and seeds of velvetleaf, morningglory, common chickweed, cocklebur, and blackgrass were planted in the furrows of the second flat. The five-row template was employed to firmly press the seeds into place. A topping soil of equal portions of sand and sandy loam soil was placed uniformly on top of each flat to a depth of approximately 0.5 cm. Flats for postemergence testing were prepared in the same manner except that they were planted 8-12 days prior to the preemergence flats and were placed in a greenhouse and watered, thus allowing the seeds to germinate and the foliage to develop.
(§3) In both pre- and postemergence tests, a stock solution of the candidate herbicide was prepared by dissolving 0.27 g of the compound in 20 mL of water/acetone (50/50) containing 0.5% v/v sorbitan monolaurate. For an application rate of 3000 g/ha of herbicide a 10 mL portion of the stock solution was diluted with water/acetone (50/50) to 45 mL.
(§4) The preemergence flats were initially subjected to a light water spray. The four flats were placed two by two along a conveyor belt (i.e., the two preemergence followed by the two postemergence flats). The conveyor belt fed under a spray nozzle mounted about ten inches above the postemergent foliage. The preemergent flats were elevated on the belt so that the soil surface was at the same level below the spray nozzle as the foliage canopy of the postemergent plants. The spray of herbicidal solution was commenced and once stabilized, the flats were passed under the spray at a speed to receive a coverage equivalent of 1000 L/ha. At this coverage the application rates are those shown in the above table for the individual herbicidal solutions. The preemergence flats were watered immediately thereafter, placed in the greenhouse and watered regularly at the soil surface. The postemergence flats were immediately placed in the greenhouse and not watered until 24 hours after treatment with the test solution. Thereafter they were regularly watered at ground level. After 17-21 days the plants were examined and the phytotoxicity data were recorded.
(§5) Herbicidal activity data at selected application rates are given for various compounds of this invention in Table 2 and Table 3. The test compounds are identified by numbers which correspond to those in Table 1.
(§6) Phytotoxicity data were taken as percent control. Percent control was determined by a method similar to the 0 to 100 rating system disclosed in "Research Methods in Weed Science," 2nd ed., B. Truelove, Ed.; Southern Weed Science Society; Auburn University, Auburn, Ala., 1977.

Cocklebur [2] = experiment: Preemergence herbicidal activity, cocklebur; type: in vivo, Xanthium pensylvanicum; settings: Xanthium strumarium, pre-emergence, 0.3 kg/ha, after 17-21 days, read-out: Preemergence herbicidal activity (% control), Cocklebur
Description: as §1, §2, §3, §4, §5, §6

Soybean [3] = experiment: Postemergence herbicidal activity, soybean; type: in vivo, Glycine max var. Williams; settings: Glycine max, post-emergence, 0.3 kg/ha, after 17-21 days, read-out: Postemergence herbicidal activity (% control), Soybean
Description: as §1, §2, §3, §4, §5, §6

Corn [4] = experiment: Postemergence herbicidal activity, corn; type: in vivo, Zea mays var. Agway 425X; settings: Zea mays, post-emergence, 0.3 kg/ha, after 17-21 days, read-out: Postemergence herbicidal activity (% control), Corn
Description: as §1, §2, §3, §4, §5, §6

Soybean [5] = experiment: Preemergence herbicidal activity, soybean; type: in vivo, Glycine max var. Williams; settings: Glycine max, pre-emergence, 0.3 kg/ha, after 17-21 days, read-out: Preemergence herbicidal activity (% control), Soybean
Description: as §1, §2, §3, §4, §5, §6

Corn [6] = experiment: Preemergence herbicidal activity, corn; type: in vivo, Zea mays var. Agway 425X; settings: Zea mays, pre-emergence, 0.3 kg/ha, after 17-21 days, read-out: Preemergence herbicidal activity (% control), Corn
Description: as §1, §2, §3, §4, §5, §6

Morningglory [7] = experiment: Preemergence herbicidal activity, morningglory; type: in vivo, Ipomea lacunosa or Ipomea hederacea; settings: Ipomoea, pre-emergence, 0.3 kg/ha, after 17-21 days, read-out: Preemergence herbicidal activity (% control), Morningglory
Description: as §1, §2, §3, §4, §5, §6

Green foxtail [8] = experiment: Postemergence herbicidal activity, green foxtail; type: in vivo; settings: Setaria viridis, post-emergence, 0.3 kg/ha, after 17-21 days, read-out: Postemergence herbicidal activity (% control), Green foxtail
Description: as §1, §2, §3, §4, §5, §6

Chickweed [9] = experiment: Preemergence herbicidal activity, chickweed; type: in vivo; settings: Stellaria media, pre-emergence, 0.3 kg/ha, after 17-21 days, read-out: Preemergence herbicidal activity (% control), Chickweed
Description: as §1, §2, §3, §4, §5, §6

Chickweed [10] = experiment: Postemergence herbicidal activity, chickweed; type: in vivo; settings: Stellaria media, post-emergence, 0.3 kg/ha, after 17-21 days, read-out: Postemergence herbicidal activity (% control), Chickweed
Description: as §1, §2, §3, §4, §5, §6

Johnsongrass [11] = experiment: Postemergence herbicidal activity, johnsongrass; type: in vivo; settings: Sorghum halepense, post-emergence, 0.3 kg/ha, after 17-21 days, read-out: Postemergence herbicidal activity (% control), Johnsongrass
Description: as §1, §2, §3, §4, §5, §6

Blackgrass [12] = experiment: Postemergence herbicidal activity, blackgrass; type: in vivo, Aloepecurus myosuroides; settings: Alopecurus myosuroides, post-emergence, 0.3 kg/ha, after 17-21 days, read-out: Postemergence herbicidal activity (% control), Blackgrass
Description: as §1, §2, §3, §4, §5, §6

Velvetleaf [13] = experiment: Preemergence herbicidal activity, velvetleaf; type: in vivo; settings: Abutilon theophrasti, pre-emergence, 0.3 kg/ha, after 17-21 days, read-out: Preemergence herbicidal activity (% control), Velvetleaf
Description: as §1, §2, §3, §4, §5, §6

Wheat [14] = experiment: Preemergence herbicidal activity, wheat; type: in vivo, Triticum aestivum var. Wheaton; settings: Triticum aestivum, pre-emergence, 0.3 kg/ha, after 17-21 days, read-out: Preemergence herbicidal activity (% control), Wheat
Description: as §1, §2, §3, §4, §5, §6

Blackgrass [15] = experiment: Preemergence herbicidal activity, blackgrass; type: in vivo, Aloepecurus myosuroides; settings: Alopecurus myosuroides, pre-emergence, 0.3 kg/ha, after 17-21 days, read-out: Preemergence herbicidal activity (% control), Blackgrass
Description: as §1, §2, §3, §4, §5, §6

Cocklebur [16] = experiment: Postemergence herbicidal activity, cocklebur; type: in vivo, Xanthium pensylvanicum; settings: Xanthium strumarium, post-emergence, 0.3 kg/ha, after 17-21 days, read-out: Postemergence herbicidal activity (% control), Cocklebur
Description: as §1, §2, §3, §4, §5, §6

Johnsongrass [17] = experiment: Preemergence herbicidal activity, johnsongrass; type: in vivo; settings: Sorghum halepense, pre-emergence, 0.3 kg/ha, after 17-21 days, read-out: Preemergence herbicidal activity (% control), Johnsongrass
Description: as §1, §2, §3, §4, §5, §6

Wheat [18] = experiment: Postemergence herbicidal activity, wheat; type: in vivo, Triticum aestivum var. Wheaton; settings: Triticum aestivum, post-emergence, 0.3 kg/ha, after 17-21 days, read-out: Postemergence herbicidal activity (% control), Wheat
Description: as §1, §2, §3, §4, §5, §6

Velvetleaf [19] = experiment: Postemergence herbicidal activity, velvetleaf; type: in vivo; settings: Abutilon theophrasti, post-emergence, 0.3 kg/ha, after 17-21 days, read-out: Postemergence herbicidal activity (% control), Velvetleaf
Description: as §1, §2, §3, §4, §5, §6

Morningglory [20] = experiment: Postemergence herbicidal activity, morningglory; type: in vivo, Ipomea lacunosa or Ipomea hederacea; settings: Ipomoea, post-emergence, 0.3 kg/ha, after 17-21 days, read-out: Postemergence herbicidal activity (% control), Morningglory
Description: as §1, §2, §3, §4, §5, §6

Structure (SMILES)	activity at 300 g/ha (Green foxtail [1])	activity at 300 g/ha (Cocklebur [2])	activity at 300 g/ha (Soybean [3])	activity at 300 g/ha (Corn [4])	activity at 300 g/ha (Soybean [5])	activity at 300 g/ha (Corn [6])	activity at 300 g/ha (Morningglory [7])	activity at 300 g/ha (Green foxtail [8])	activity at 300 g/ha (Chickweed [9])	activity at 300 g/ha (Chickweed [10])	activity at 300 g/ha (Johnsongrass [11])	activity at 300 g/ha (Blackgrass [12])	activity at 300 g/ha (Velvetleaf [13])	activity at 300 g/ha (Wheat [14])	activity at 300 g/ha (Blackgrass [15])	activity at 300 g/ha (Cocklebur [16])	activity at 300 g/ha (Johnsongrass [17])	activity at 300 g/ha (Wheat [18])	activity at 300 g/ha (Velvetleaf [19])	activity at 300 g/ha (Morningglory [20])
Cn1c(C(F)(F)F)cc(=O)n(-c2ccc(OCc3ccccc3)cc2)c1=O [Compound 1]	100%	75%	80%	30%	75%	60%	100%	90%	90%	95%	60%	10%	100%	10%	10%	80%	75%	0%	100%	95%
Cn1c(C(F)(F)F)cc(=O)n(-c2ccc(OCc3ccccc3Cl)cc2)c1=O [Compound 2]	100%	10%	60%	45%	20%	15%	60%	85%	0%	0%	10%	0%	100%	5%	0%	30%	70%	0%	80%	60%
Cn1c(C(F)(F)F)cc(=O)n(-c2ccc(OCc3cccc(Cl)c3)cc2)c1=O [Compound 3]	95%	0%	45%	60%	10%	10%	10%	95%	0%	70%	90%	0%	80%	0%	0%	100%	20%	10%	100%	90%
Cn1c(C(F)(F)F)cc(=O)n(-c2ccc(OCc3ccc(Cl)cc3)cc2)c1=O [Compound 4, 3-[4-(4-Chlorophenylmethoxy)phenyl]-1-methyl-6-trifluoromethyluracil]	100%	30%	95%	50%	60%	30%	90%	80%	100%	100%	0%	0%	100%	10%	50%	100%	95%	0%	95%	100%
Cn1c(C(F)(F)F)cc(=O)n(-c2ccc(OCc3ccc(F)cc3)cc2)c1=O [Compound 5]	100%	40%	90%	75%	60%	50%	100%	90%	100%	100%	75%	30%	100%	20%	20%	100%	90%	0%	100%	100%
Cn1c(C(F)(F)F)cc(=O)n(-c2ccc(OCc3ccc(Cl)cc3Cl)cc2)c1=O [Compound 6]	100%	10%	40%	20%	20%	10%	45%	40%	10%	0%	20%	0%	100%	0%	0%	60%	60%	0%	80%	50%
Cn1c(C(F)(F)F)cc(=O)n(-c2ccc(OCc3cccc(Cl)c3Cl)cc2)c1=O [Compound 42]	60%	0%	25%	30%	0%	0%	70%	50%	0%	0%	50%	0%	80%	0%	0%	35%	30%	0%	90%	
